According to patent US7208517B1, “Endothelin antagonists” (Abbott Labortories, priority 1994, dated 2007):

Legend:
[1] = system: male subjects with hormone refractory prostate cancer; test: Interleukin-6 levels in serum of treated subjects; type: in vivo, human; conditions: subjects treated versus placebo
Protocol: (§1) Studies were performed on male subjects with asymptomatic hormone refractory prostate cancer with rising PSA levels and on male subjects with symptomatic hormone refractory prostate cancer with rising PSA levels and pain. Subjects in the phase II studies had castrate levels of testosterone, either due to pharmacologic intervention, via leuprolide (Lupron®) or goserelin (Zoladex®), or via surgical castration. Subjects received ABT-627 or placebo. The following tests were conducted:
(§2) ABT-627 was formulated in 2.5 and 10 mg doses. An oral liquid formulation of ABT-627 was also prepared as follows: 1 mg/ml ABT-627, 50% glycerin, 14% alcohol, and water. Matching placebos were also provided.
The effect of ABT-627 adminstration on Interleukin-6 levels in human serum samples was determined at Quintiles Laboratories using a sandwich immunoassay. Human serum samples and standards were incubated in microtiter plate wells coated with a monoclonal anti-IL-6 antibody, in the presence of a second monoclonal anti IL-6 antibody, linked to acetylcholinesterase. After incubation, the wells were washed, and the bound enzymatic activity was measured using a chromogenic substrate. The intensity of the color was proportional to the concentration of IL-6 in the sample or standard.

[2] = system: male subjects with hormone refractory prostate cancer; test: Bone scan (bone scan index, skeletal involvement) of treated subjects; type: in vivo, human; conditions: versus placebo
Protocol: as §1, §2
Bone scans were performed with an NDA approved, Tc-99m phosphonate type radiopharmaceutical. This technique uses whole body format (skull to feet) so that anterior and posterior images are presented when using a 510 K-approved gamma camera. […] Each site was evaluated against a confidence score of 1 to 5, where 1 is negative, 2 is probably negative, 3 is equivocal, 4 is probably positive, and 5 is definitely positive. […] In addition, in a blinded study, a reference nuclear medicine physician interpreted the bone scans quantitatively as follows: the percent of involved bone was estimated for each individual bone, and the individual bone involvement was summed to calculate a global percent bone scan index (BSI). […]

[3] = system: male subjects with hormone refractory prostate cancer; test: Visual Analog Scale (VAS) pain assessment of treated subjects; type: in vivo, human; conditions: independent of the effects of morphine
Protocol: Studies were performed on male subjects with asymptomatic hormone refractory prostate cancer with rising PSA levels and on male subjects with symptomatic hormone refractory prostate cancer with rising PSA levels and pain. Subjects in the phase II studies had castrate levels of testosterone, either due to pharmacologic intervention, via leuprolide (Lupron®) or goserelin (Zoladex®), or via surgical castration. Subjects received ABT-627 or placebo. The following tests were conducted: ABT-627 was formulated in 2.5 and 10 mg doses. An oral liquid formulation of ABT-627 was also prepared as follows: 1 mg/ml ABT-627, 50% glycerin, 14% alcohol, and water. Matching placebos were also provided. […] The log also contained a table on which was recorded all daily pain medication consumed by the patient. […] Clinical personnel who received the logs measured the score by measuring the distance (in mm) from the “no pain” end mark to the point where the subject's line crossed the VAS line. […] The weekly VAS scores were calculated excluding the lowest and highest score for each week and averaging the remaining five scores. […] The duration of the response, defined as the time from baseline to the last weekly assessment for which the responder definition was satisfied, was analyzed using the Kaplan-Meier methodology and logrank test.

[4] = Determination of plasma protein binding (ultrafiltration, HPLC); type: in vitro ADME; design: fraction unbound at 1 h: dose or concentration left out as unconfirmed; conditions: fresh plasma, 1 hour at room temperature, read-out: percent of bound compound (plasma protein binding, % PB) (converted)
Protocol: A stock solution of the test compound in 50% ethanol (2 mg/mL) was diluted 10× into PBS. A 0.4 mL sample of this secondary stock solution was added to 3.6 mL of fresh plasma, and incubated at room temperature for 1 hour. A 1 mL sample of this incubation mixture was transferred to a Centrifree ultrafiltration tube. The sample was centrifuged in a fixed-bucket rotor for approximately 2 min and the filtrate was discarded. The sample was centrifuged for another 15–30 min. A 100 μL sample of the ultrafiltrate was transfered to a micro HPLC sample vial containing […] of HPLC mobile phase and mixed thoroughly. A 50 μL sample was injected and the concentration of drug in the ultrafiltrate was determined by HPLC analysis compared against a standard sample prepared identically in the absence of plasma. Ultrafiltrate concentrations are calculated from a calibration curve. Protein binding is calculated according to the equation: % PB=[1−(Cu/Ci)]*100%
where Cu is the ultrafiltrate concentration and Ci is the initial plasma concentration.

Row | Structure (SMILES) | average change in baseline for Interleukin-6 (AUC, FIG. 1) [1] | proportion of total skeletal involvement by bone scan (FIG. 6) [2] | VAS scores, pain (AUC, FIG. 3) [3] | fraction unbound at 1 h [4]
1 | CCCCCN(CCCC)C(=O)CN1C[C@H](c2ccc3c(c2)OCO3)[C@@H](C(=O)O)[C@@H]1c1ccc(OC)cc1 [ABT-627] | the average change in baseline for Interleukin-6 was lower | a decrease in the proportion of total skeketal involvement | VAS scores showed a decrease in pain | –
2 | CCCCN(C(=O)CN1CC(c2ccc3c(c2)OCO3)C(C(=O)O)C1c1ccc(OC)cc1)c1cccnc1 (stereo not shown) [compound 531] | – | – | – | 0.08
